How the values were obtained:
[1] = target: T1, human H3 receptor (Homo sapiens, UniProt Q9Y5N1); assay: H3 receptor binding (N-[3H]-α-methylhistamine displacement); conditions: membranes of SK-N-MC cells expressing cloned human H3 receptor, 0.8 nM N-[3H]-α-methylhistamine, 60 min at 25° C.
T1 construct: expressed in transfected cells

[2] = target: T2, Rat SERT (Rattus norvegicus, UniProt P31652); assay: Rat brain SERT binding ([3H]-citalopram displacement); conditions: rat brain membranes without cerebellum, 0.6 nM [3H]-citalopram, 60 min at 25° C.; read-out: Rat SERT Ki
T2 construct: A rat brain without cerebellum (Zivic Laboratories, Inc.—Pittsburgh, Pa.) was homogenized; tissue Zivic Laboratories, Inc; host or cells: rat brain without cerebellum, membranes
Protocol: The supernatant was removed and re-centrifuged at 15,000 rpm for 30 min. […] Membranes were incubated with 0.6 nM [^3H]-Citalopram plus/minus test compounds for 60 min at 25° C. and harvested by rapid filtration over GF/C glass fiber filters (pretreated with 0.3% polyethylenimine) followed by four washes with ice-cold buffer.

[3] = target: T3, human SERT (Homo sapiens, UniProt P31645); assay: Human SERT binding (3H-citalopram displacement); conditions: HEK293 membranes expressing human SERT, rt 1 h
T3 construct: expressed in transfected cells; host or cells: HEK293 membranes
Protocol: Homogenized HEK293 (Human Embryonic Kidney) membranes expressing the human SERT were incubated with ^3H-citalopram (SERT) at rt for 1 h in 50 mM Tris, 120 mM NaCl, 5 mM KCl (pH 7.4). […] The membranes were washed and the radioactivity was counted as above.

T1 sequence (Q9Y5N1 whole entry): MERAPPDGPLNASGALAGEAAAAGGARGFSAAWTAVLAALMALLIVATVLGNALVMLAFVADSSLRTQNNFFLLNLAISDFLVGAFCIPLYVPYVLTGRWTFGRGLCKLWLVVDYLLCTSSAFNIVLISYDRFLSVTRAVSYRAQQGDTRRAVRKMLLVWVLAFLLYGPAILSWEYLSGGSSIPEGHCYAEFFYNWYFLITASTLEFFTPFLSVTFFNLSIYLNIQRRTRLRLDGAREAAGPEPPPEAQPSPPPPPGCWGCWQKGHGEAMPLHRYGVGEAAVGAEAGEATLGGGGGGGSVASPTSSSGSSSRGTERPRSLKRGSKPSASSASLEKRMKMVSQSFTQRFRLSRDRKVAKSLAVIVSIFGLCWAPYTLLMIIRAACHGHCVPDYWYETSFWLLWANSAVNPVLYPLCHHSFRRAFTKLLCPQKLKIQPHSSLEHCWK
T3 sequence (P31645 whole entry): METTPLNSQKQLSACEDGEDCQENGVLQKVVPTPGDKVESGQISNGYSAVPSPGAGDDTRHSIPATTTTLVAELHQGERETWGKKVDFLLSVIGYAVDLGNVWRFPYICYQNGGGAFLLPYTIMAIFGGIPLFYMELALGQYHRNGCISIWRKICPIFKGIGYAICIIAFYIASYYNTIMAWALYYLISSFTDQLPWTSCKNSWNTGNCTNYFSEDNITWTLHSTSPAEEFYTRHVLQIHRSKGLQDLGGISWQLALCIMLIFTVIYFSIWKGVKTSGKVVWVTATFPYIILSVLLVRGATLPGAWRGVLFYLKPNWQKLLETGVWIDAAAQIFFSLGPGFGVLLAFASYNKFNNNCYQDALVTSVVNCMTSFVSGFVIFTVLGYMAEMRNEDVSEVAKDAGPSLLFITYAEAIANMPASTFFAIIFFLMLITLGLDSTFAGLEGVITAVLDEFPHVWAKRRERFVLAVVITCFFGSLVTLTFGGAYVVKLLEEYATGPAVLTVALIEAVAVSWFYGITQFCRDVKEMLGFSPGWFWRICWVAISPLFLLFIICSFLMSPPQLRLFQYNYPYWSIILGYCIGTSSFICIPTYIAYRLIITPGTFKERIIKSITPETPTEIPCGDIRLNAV
T2 sequence (P31652 whole entry): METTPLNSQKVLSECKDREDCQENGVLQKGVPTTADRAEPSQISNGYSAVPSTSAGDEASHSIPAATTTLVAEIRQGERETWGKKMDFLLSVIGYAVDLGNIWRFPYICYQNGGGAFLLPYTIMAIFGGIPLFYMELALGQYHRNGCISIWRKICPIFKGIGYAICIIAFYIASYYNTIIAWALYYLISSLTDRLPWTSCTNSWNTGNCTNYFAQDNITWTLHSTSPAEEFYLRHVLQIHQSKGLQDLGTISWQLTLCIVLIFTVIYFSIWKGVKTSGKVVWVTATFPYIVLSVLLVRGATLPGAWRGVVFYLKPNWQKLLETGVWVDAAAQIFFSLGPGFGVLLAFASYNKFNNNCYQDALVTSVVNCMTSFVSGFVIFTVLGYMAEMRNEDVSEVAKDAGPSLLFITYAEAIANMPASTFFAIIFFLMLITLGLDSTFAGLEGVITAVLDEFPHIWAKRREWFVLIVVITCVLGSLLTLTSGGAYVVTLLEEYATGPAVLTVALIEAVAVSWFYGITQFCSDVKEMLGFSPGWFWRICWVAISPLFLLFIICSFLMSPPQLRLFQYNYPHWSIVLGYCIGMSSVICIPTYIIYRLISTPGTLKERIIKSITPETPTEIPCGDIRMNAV

`CCOC(=O)N1CCN(CCCOc2ccc3c(c2)CN(C)CC3c2ccc(OC)cc2)CC1` (centres unmarked) [Example 12, 4-{3-[4-(4-Methoxy-phenyl)-2-methyl-1,2,3,4-tetrahydro-isoquinolin-7-yloxy]-propyl}-piperazine-1-carboxylic acid ethyl ester] gave a Ki [1] of 59 nM, a Ki [2] of 6 nM and a Ki [3] of 16 nM.
`CSc1ccc(C2CN(C)Cc3cc(OCCCN4CCC(F)(F)CC4)ccc32)cc1` (centres unmarked) [Example 216, 7-[3-(4,4-Difluoro-piperidin-1-yl)-propoxy]-2-methyl-4-(4-methylsulfanyl-phenyl)-1,2,3,4-tetrahydro-isoquinoline] gave a Ki [1] of 22 nM, a Ki [2] of 4 nM and a Ki [3] of 8 nM.
`CCN1Cc2cc(OCCCN3CCCCC3)ccc2C(c2ccc(OC)cc2)C1` (centres unmarked) [Example 66, 2-Ethyl-4-(4-methoxy-phenyl)-7-(3-piperidin-1-yl-propoxy)-1,2,3,4-tetrahydro-isoquinoline] showed a Ki [1] of 1 nM, a Ki [2] of 5 nM and a Ki [3] of 4 nM.
`COc1ccc(C2CN(C)Cc3cc(OCCCN4CCCC(F)C4)ccc32)cc1` (centres unmarked) [Example 39, 7-[3-(3-Fluoro-piperidin-1-yl)-propoxy]-4-(4-methoxy-phenyl)-2-methyl-1,2,3,4-tetrahydro-isoquinoline] gave a Ki [1] of 3 nM, a Ki [2] of 3 nM and a Ki [3] of 3 nM.
`COc1ccc(C2CN(C)Cc3cc(OCCCN4C[C@@H](C)O[C@@H](C)C4)ccc32)cc1` (some centres unmarked) [Example 32, 7-[3-(2,6-Dimethyl-morpholin-4-yl)-propoxy]-4-(4-methoxy-phenyl)-2-methyl-1,2,3,4-tetrahydro-isoquinoline] gave a Ki [1] of 21 nM, a Ki [2] of 8 nM and a Ki [3] of 9 nM.
Work on `COc1ccc(C2CN(C)Cc3cc(OCCCN4CCN(C(C)C)CC4)ccc32)cc1` (centres unmarked) [Example 199, 7-[3-(4-Isopropyl-piperazin-1-yl)-propoxy]-4-(4-methoxy-phenyl)-2-methyl-1,2,3,4-tetrahydro-isoquinoline] yielded a Ki [1] of 8 nM, a Ki [2] of 2 nM and a Ki [3] of 2 nM.
For `COc1cccc(C2CN(C)Cc3cc(OCC4CCN(C)CC4)ccc32)c1` (centres unmarked) [Example 92, 4-(3-Methoxy-phenyl)-2-methyl-7-(1-methyl-piperidin-4-ylmethoxy)-1,2,3,4-tetrahydro-isoquinoline], the Ki [1] was 2 nM, the Ki [2] was 12 nM and the Ki [3] was 9 nM.
`COc1ccc(C2CN(C)Cc3cc(OCCCN4CCN(C(=O)c5cccn5C)CC4)ccc32)cc1` (centres unmarked) [Example 13, (4-{3-[4-(4-Methoxy-phenyl)-2-methyl-1,2,3,4-tetrahydro-isoquinolin-7-yloxy]-propyl}-piperazin-1-yl)-(1-methyl-1H-pyrrol-2-yl)-methanone] showed a Ki [1] of 2400 nM, a Ki [2] of 10 nM and a Ki [3] of 11 nM.
Molecule `COc1ccc(C2CN(C)Cc3cc(OCCCN4CCCC(C(F)(F)F)C4)ccc32)cc1` (centres unmarked) [Example 25, 4-(4-Methoxy-phenyl)-2-methyl-7-[3-(3-trifluoromethyl-piperidin-1-yl)-propoxy]-1,2,3,4-tetrahydro-isoquinoline] has a Ki [1] of 7 nM, a Ki [2] of 10 nM and a Ki [3] of 6 nM.
For `COc1ccc(C2CN(C)Cc3cc(OCCCN4CC[C@@H](O)C4)ccc32)cc1` (stereo partly drawn) [Example 31, 1-{3-[4-(4-Methoxy-phenyl)-2-methyl-1,2,3,4-tetrahydro-isoquinolin-7-yloxy]-propyl}-(R)-pyrrolidin-3-ol], the Ki [1] was 2 nM, the Ki [2] was 2 nM and the Ki [3] was 3 nM.
In the case of `COc1ccc(C2CN(C)Cc3cc(CCCCN4CCSCC4)ccc32)cc1` (centres unmarked) [Example 282, 4-(4-Methoxy-phenyl)-2-methyl-7-(4-thiomorpholin-4-yl-butyl)-1,2,3,4-tetrahydro-isoquinoline], the Ki [1] is reported as 25 nM, the Ki [2] is reported as 6 nM and the Ki [3] is reported as 17 nM.
Molecule `COc1cccc(C2CN(C)Cc3cc(OCC4CCN(C(C)C)CC4)ccc32)c1` (centres unmarked) [Example 91, 7-(1-Isopropyl-piperidin-4-ylmethoxy)-4-(3-methoxy-phenyl)-2-methyl-1,2,3,4-tetrahydro-isoquinoline] has a Ki [1] of 1 nM, a Ki [2] of 11 nM and a Ki [3] of 11 nM.
`COc1ccc(C2CN(C)Cc3cc(OCCCN4CCC(F)(F)C4)ccc32)cc1` (centres unmarked) [Example 129, 7-[3-(3,3-Difluoro-pyrrolidin-1-yl)-propoxy]-4-(4-methoxy-phenyl)-2-methyl-1,2,3,4-tetrahydro-isoquinoline] gave a Ki [1] of 14 nM, a Ki [2] of 7 nM and a Ki [3] of 5 nM.
With `COc1ccc(C2CN(C)Cc3cc(OCCCN4CCN(C(C)=O)CC4)ccc32)cc1` (centres unmarked) [Example 2, 1-(4-{3-[4-(4-Methoxy-phenyl)-2-methyl-1,2,3,4-tetrahydro-isoquinolin-7-yloxy]-propyl}-piperazin-1-yl)-ethanone] the Ki [1] was 70 nM, the Ki [2] was 13 nM and the Ki [3] was 56 nM.
Work on `CSc1ccc(C2CN(C)Cc3cc(OCCCN4CCOC[C@@H]4C)ccc32)cc1` (stereo partly drawn) [Example 215, 2-Methyl-7-[3-(3S-methyl-morpholin-4-yl)-propoxy]-4-(4-methylsulfanyl-phenyl)-1,2,3,4-tetrahydro-isoquinoline] yielded a Ki [1] of 5 nM, a Ki [2] of 1 nM and a Ki [3] of 5 nM.
With `COc1ccc(C2CN(C)Cc3cc(OCCCN4CCC(CO)CC4)ccc32)cc1` (centres unmarked) [Example 22, (1-{3-[4-(4-Methoxy-phenyl)-2-methyl-1,2,3,4-tetrahydro-isoquinolin-7-yloxy]-propyl}-piperidin-4-yl)-methanol] the Ki [1] was 11 nM, the Ki [2] was 3 nM and the Ki [3] was 5 nM.
With `COc1ccc(C2CN(C)Cc3cc(OCCCN4CCOC[C@@H]4C)ccc32)c(F)c1` (stereo partly drawn) [Example 220, 4-(2-Fluoro-4-methoxy-phenyl)-2-methyl-7-[3-(3S-methyl-morpholin-4-yl)-propoxy]-1,2,3,4-tetrahydro-isoquinoline] the Ki [1] was 6 nM, the Ki [2] was 4 nM and the Ki [3] was 12 nM.
`COc1ccc(C2CN(C)Cc3cc(OCCCN4CCCC(CO)C4)ccc32)cc1` (centres unmarked) [Example 23, (1-{3-[4-(4-Methoxy-phenyl)-2-methyl-1,2,3,4-tetrahydro-isoquinolin-7-yloxy]-propyl}-piperidin-3-yl)-methanol] showed a Ki [1] of 2 nM, a Ki [2] of 2 nM and a Ki [3] of 4 nM.
Molecule `COc1ccc(C2CN(C)Cc3cc(OC4CCN(C5CCOCC5)CC4)ccc32)cc1` (centres unmarked) [Example 121, 4-(4-Methoxy-phenyl)-2-methyl-7-[1-(tetrahydro-pyran-4-yl)-piperidin-4-yloxy]-1,2,3,4-tetrahydro-isoquinoline] has a Ki [1] of 2 nM, a Ki [2] of 10 nM and a Ki [3] of 6 nM.
For `CSc1ccc(C2CN(C)Cc3cc(OC4CCN(C5CC5)CC4)ccc32)cc1` (centres unmarked) [Example 247, 7-(1-Cyclopropyl-piperidin-4-yloxy)-2-methyl-4-(4-methylsulfanyl-phenyl)-1,2,3,4-tetrahydro-isoquinoline], the Ki [1] was 2 nM, the Ki [2] was 5 nM and the Ki [3] was 7 nM.
Molecule `COc1ccc(C2CN(C)Cc3cc(OCC4CCN(CCF)CC4)ccc32)cc1` (centres unmarked) [Example 116, 7-[1-(2-Fluoro-ethyl)-piperidin-4-ylmethoxy]-4-(4-methoxy-phenyl)-2-methyl-1,2,3,4-tetrahydro-isoquinoline] has a Ki [1] of 8 nM, a Ki [2] of 6 nM and a Ki [3] of 7 nM.
With `COc1cccc(C2CN(C)Cc3cc(OCC4CCNCC4)ccc32)c1` (centres unmarked) [Example 241, 4-(3-Methoxy-phenyl)-2-methyl-7-(piperidin-4-ylmethoxy)-1,2,3,4-tetrahydro-isoquinoline] the Ki [1] was 39 nM and the Ki [3] was 10 nM.
